# Measured values reported in paper PMC6713262 (Cell, 2019).
# What was measured:
# Assay type in all cases: cell-based
# [1] = target: CB2 T127A (Homo sapiens, UniProt P34972, T127A); experiment: Receptor activity at CB2 stabilizing point mutant T127A
# [2] = target: CB2 (Homo sapiens, UniProt P34972); experiment: β-arrestin2 recruitment assay; conditions: for Emax (fold): CB2 β-arrestin2; for EC50: EC50, CB2 β-arrestin2
# [3] = target: CB2 G78L (Homo sapiens, UniProt P34972, G78L); experiment: Receptor activity at CB2 stabilizing point mutant G78L
# Chain of CB2 G78L (P34972 whole entry G78L): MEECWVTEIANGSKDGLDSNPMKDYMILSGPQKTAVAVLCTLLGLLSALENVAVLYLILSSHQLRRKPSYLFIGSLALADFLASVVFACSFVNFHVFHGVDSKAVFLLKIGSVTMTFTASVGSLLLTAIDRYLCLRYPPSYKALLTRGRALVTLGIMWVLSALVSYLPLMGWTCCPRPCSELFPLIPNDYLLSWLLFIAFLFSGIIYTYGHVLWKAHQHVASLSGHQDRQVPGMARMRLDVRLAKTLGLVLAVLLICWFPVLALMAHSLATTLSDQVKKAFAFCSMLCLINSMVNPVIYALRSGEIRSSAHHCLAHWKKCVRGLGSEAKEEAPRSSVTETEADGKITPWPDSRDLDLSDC
# [4] = target: wild-type CB2 (Homo sapiens, UniProt P34972); experiment: Forskolin-stimulated cAMP accumulation
# Chain of wild-type CB2 (P34972 whole entry): as the sequence (P34972 whole entry G78L) above, with L78G counted along it
# [5] = target: CB2 R242E (Homo sapiens, UniProt P34972, R242E); experiment: Receptor activity at CB2 stabilizing point mutant R242E
# Chain of CB2 R242E (P34972 whole entry R242E): as the sequence (P34972 whole entry G78L) above, with L78G, R242E counted along it
# [6] = target: CB2 T153L (Homo sapiens, UniProt P34972, T153L); experiment: Receptor activity at CB2 stabilizing point mutant T153L
# Chain of CB2 T153L (P34972 whole entry T153L): as the sequence (P34972 whole entry G78L) above, with L78G, T153L counted along it
# [7] = target: CB1 (Homo sapiens, UniProt P21554); experiment: β-arrestin2 recruitment assay at CB1; conditions: for Emax (fold): CB1 β-arrestin2
# Chain of CB1 (P21554 whole entry): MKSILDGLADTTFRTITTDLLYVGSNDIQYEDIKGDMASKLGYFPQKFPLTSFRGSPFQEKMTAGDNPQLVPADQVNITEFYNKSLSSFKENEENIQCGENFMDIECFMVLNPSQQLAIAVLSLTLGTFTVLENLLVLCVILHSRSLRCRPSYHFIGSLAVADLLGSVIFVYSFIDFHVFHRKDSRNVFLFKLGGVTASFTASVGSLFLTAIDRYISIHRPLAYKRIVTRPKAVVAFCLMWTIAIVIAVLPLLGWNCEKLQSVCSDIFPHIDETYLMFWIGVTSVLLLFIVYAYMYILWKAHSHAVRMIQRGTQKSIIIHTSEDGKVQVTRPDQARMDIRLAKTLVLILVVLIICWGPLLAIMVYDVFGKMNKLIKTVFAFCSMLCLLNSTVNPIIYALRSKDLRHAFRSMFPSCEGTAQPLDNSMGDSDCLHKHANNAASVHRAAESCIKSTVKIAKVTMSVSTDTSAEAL
# [8] = target: CB2 G304E (Homo sapiens, UniProt P34972, G304E); experiment: Receptor activity at CB2 stabilizing point mutant G304E
# Chain of CB2 G304E (P34972 whole entry G304E): as the sequence (P34972 whole entry G78L) above, with L78G, G304E counted along it
# Chain of CB2 (P34972 whole entry): as the sequence (P34972 whole entry G78L) above, with L78G counted along it
# Chain of CB2 T127A (P34972 whole entry T127A): as the sequence (P34972 whole entry G78L) above, with L78G, T127A counted along it
SMILES,IC50 [1],Functional profile at CB2 (β-arrestin2 recruitment) [2],Emax (fold) ([2]; Figure 1C),EC50 ([2]; Figure 1C),EC50 ([2]; Figure 6C),IC50 [3],IC50 [4],Kb [4],"Functional profile at CB2 (adenylyl cyclase assay) ([4]; against CP55,940, Figure 1B)",IC50 [5],IC50 [6],EC50 [7],Functional profile at CB1 (β-arrestin2 recruitment) [7],Emax (fold) ([7]; Figure 5C),IC50 [8],Emax (fold) ([2]; Figure 6C),Emax (fold) ([7]; Figure 6D)
"Cc1c(C(=O)NC23CC4CC(CC(C4)C2)C3)nn(CCCCCO)c1-c1ccccc1 [AM10257, 1-(5-Hydroxypentyl)-4-methyl-5-phenyl-N-tricyclo[3.3.1.1^3,7]dec-1-yl-1H-pyrazole-3-carboxamide]",0.0401 ± 0.0045 µM,competitive antagonist/inverse agonist,0.70 ± 0.05 fold,0.00053 ± 0.00029 µM,0.0002 ± 4e-05 µM,0.0597 ± 0.0081 µM,0.0359 ± 0.0032 µM,0.00501 µM,competitive antagonist/inverse agonist,0.0467 ± 0.0113 µM,0.0462 ± 0.0046 µM,0.0515 ± 0.0074 µM,partial agonist,2.4 ± 0.1 fold,0.0321 ± 0.0062 µM,–,–
"CC(=O)OCCn1c(C)c(C)sc1=NC(=O)C1C(C)(C)C1(C)C [MRI2594, 2-(4,5-dimethyl-2-((2,2,3,3-tetramethylcyclopropane-1-carbonyl)imino)thiazol-3(2H)-yl)ethyl acetate]",–,agonist,–,–,0.00017 ± 3e-05 µM,–,–,–,–,–,–,0.31 ± 0.054 µM,agonist,–,–,2.0 ± 0.2 fold,28.0 ± 2.0 fold
"CC(=O)OCCn1c(=NC(=O)C2C(C)(C)C2(C)C)sc2cc(C)ccc21 [MRI2687, 2-(6-methyl-2-((2,2,3,3-tetramethylcyclopropane-1-carbonyl)imino)benzo[d]thiazol-3(2H)-yl)ethyl acetate]",–,inverse agonist,–,–,0.00024 ± 6e-05 µM,–,–,–,–,–,–,0.114 ± 0.015 µM,partial agonist,–,–,0.75 ± 0.04 fold,6.0 ± 0.3 fold
